Experiments:
[1] = tested on: Monographella nivalis (Microdochium nivale); test: Monographella nivalis (Microdochium nivale) / liquid culture (foot rot cereals); type: cell-based; settings: PDB, 24° C., inhibition of growth determined photometrically 4-5 days after application, read-out: disease control
Method: 14 Monographella nivalis (Microdochium nivale)/liquid culture (foot rot cereals): Conidia of the fungus from cryogenic storage were directly mixed into nutrient broth (PDB potato dextrose broth). After placing a DMSO solution of test compound into a 96-well microtiter plate at an application rate of 200 ppm, the nutrient broth containing the fungal spores was added. The test plates were incubated at 24° C. and the inhibition of growth was determined photometrically 4-5 days after application.

Alternaria solani = Alternaria solani / tomato / leaf disc (early blight); type: in vivo; settings: 200 ppm; tomato leaf disks cv. Baby, inoculated 2 days after application; assessed 5-7 days after application vs untreated
Method: 6 Alternaria solani/Tomato/Leaf Disc (Early Blight) Tomato leaf disks cultivated variety (cv.) Baby were placed on agar in multiwell plates (24-well format) and sprayed with the formulated test compound diluted in water at an application rate of 200 ppm. The leaf disks were inoculated with a spore suspension of the fungus 2 days after application. The inoculated leaf disks were incubated at 23° C./21° C.

[2] = tested on: Glomerella lagenarium (Colletotrichum Lagenarium); test: Glomerella lagenarium (Colletotrichum lagenarium) / liquid culture (anthracnose); type: cell-based; settings: Colletotrichum orbiculare, PDB, 24° C., inhibition of growth measured photometrically 3-4 days after application, read-out: disease control
Method: 10 Glomerella lagenarium (Colletotrichum Lagenarium)/Liquid Culture (Anthracnose): Conidia of the fungus from cryogenic storage were directly mixed into nutrient broth (PDB potato dextrose broth). After placing a DMSO solution of test compound into a 96-well microtiter plate at an application rate of 200 ppm, the nutrient broth containing the fungal spores was added. The test plates were incubated at 24° C. and the inhibition of growth was measured photometrically 3-4 days after application.

Gaeumannomyces Graminis = test: Gaeumannomyces graminis / liquid culture (take-all of cereals); type: cell-based; settings: PDB, 24° C., inhibition of growth determined photometrically 4-5 days after application, read-out: disease control
Method: 13 Gaeumannomyces Graminis/Liquid Culture (Take-all of Cereals): Mycelial fragments of the fungus from cryogenic storage were directly mixed into nutrient broth (PDB potato dextrose broth). […] The test plates were incubated at 24° C. and the inhibition of growth was determined photometrically 4-5 days after application.

[3] = tested on: Mycosphaerella graminicola (Septoria tritici); test: Mycosphaerella graminicola (Septoria tritici) / liquid culture (Septoria blotch); type: cell-based; settings: Zymoseptoria tritici, PDB, 24° C., inhibition of growth determined photometrically 4-5 days after application, read-out: disease control
Method: 12 Mycosphaerella graminicola (Septoria tritici)/Liquid Culture (Septoria Blotch): Conidia of the fungus from cryogenic storage were directly mixed into nutrient broth (PDB potato dextrose broth). After placing a DMSO solution of test compound into a 96-well microtiter plate at an application rate of 200 ppm, the nutrient broth containing the fungal spores was added. The test plates were incubated at 24° C. and the inhibition of growth was determined photometrically 4-5 days after application.

Pythium ultimum = Pythium ultimum / liquid culture (seedling damping off); type: cell-based; settings: Globisporangium ultimum, potato dextrose broth, 24° C., inhibition of growth determined photometrically 2-3 days after application, read-out: disease control
Method: 8 Pythium ultimum/Liquid Culture (Seedling Damping Off) Mycelia fragments and oospores of a newly grown liquid culture of the fungus were directly mixed into nutrient broth (potato dextrose broth). After placing a DMSO solution of test compound into a 96-well format microtiter plate at an application rate of 200 ppm, the nutrient broth containing the fungal mycelia/spore mixture was added. The test plates were incubated at 24° C. and the inhibition of growth was determined photometrically 2-3 days after application.

[4] = tested on: Botryotinia fuckeliana (Botrytis cinerea); test: Botryotinia fuckeliana (Botrytis cinerea) / liquid culture (gray mould); type: cell-based; settings: Vogels broth, 24° C., inhibition of growth determined photometrically 3-4 days after application, read-out: disease control
Method: 9 Botryotinia fuckeliana (Botrytis cinerea)/liquid culture (Gray mould): Conidia of the fungus from cryogenic storage were directly mixed into nutrient broth (Vogels broth). After placing a DMSO solution of test compound into a 96-well microtiter plate at an application rate of 200 ppm, the nutrient broth containing the fungal spores was added. The test plates were incubated at 24° C. and the inhibition of growth was determined photometrically 3-4 days after application.

Sclerotinia sclerotiorum = Sclerotinia sclerotiorum / liquid culture (cottony rot); type: cell-based; settings: PDB, 24° C., inhibition of growth determined visually 3-4 days after application, read-out: disease control
Method: 17 Sclerotinia sclerotiorum/liquid culture (cottony rot): Mycelia fragments of a newly grown liquid culture of the fungus were directly mixed into nutrient broth (PDB potato dextrose broth). After placing a (DMSO) solution of the test compounds into a microtiter plate (96-well format) the nutrient broth containing the fungal material was added. The test plates were incubated at 24° C. and the inhibition of growth was determined visually 3-4 days after application.

Plasmopara viticola = test: whole plant or invertebrate; type: in vivo; settings: foliar, read-out: disease control
[5] = tested on: Mycosphaerella arachidis (Cercospora arachidicola); test: Mycosphaerella arachidis (Cercospora arachidicola) / liquid culture (early leaf spot); type: cell-based; settings: PDB, 24° C., inhibition of growth determined photometrically 4-5 days after application, read-out: disease control
Method: 11 Mycosphaerella arachidis (Cercospora arachidicola)/Liquid Culture (Early Leaf Spot): Conidia of the fungus from cryogenic storage were directly mixed into nutrient broth (PDB potato dextrose broth). After placing a DMSO solution of test compound into a 96-well microtiter plate at an application rate of 200 ppm, the nutrient broth containing the fungal spores was added. The test plates were incubated at 24° C. and the inhibition of growth was determined photometrically 4-5 days after application.

Fusarium culmorum = test: microbe, parasite or virus in culture; type: cell-based; settings: read-out: disease control
[6] = tested on: Thanatephorus cucumeris (Rhizoctonia solani); test: Thanatephorus cucumeris (Rhizoctonia solani) / liquid culture (foot rot, damping-off); type: cell-based; settings: PDB, 24° C., inhibition of growth determined photometrically 3-4 days after application, read-out: disease control
Method: 16 Thanatephorus cucumeris (Rhizoctonia solani)/liquid culture (foot rot, damping-off): Mycelia fragments of a newly grown liquid culture of the fungus were directly mixed into nutrient broth (PDB potato dextrose broth). After placing a DMSO solution of the test compounds into a 96-well microtiter plate at an application rate of 200 ppm, the nutrient broth containing the fungal material was added. The test plates were incubated at 24° C. and the inhibition of growth was determined photometrically 3-4 days after application.

[7] = tested on: Magnaporthe grisea (Pyricularia oryzae); type: in vivo; settings: 200 ppm; rice leaf segments cv. Ballila, inoculated 2 days after application; assessed 5-7 days after application vs untreated
Pyrenophora teres = Pyrenophora teres / barley / leaf disc preventative (net blotch); type: in vivo; settings: 200 ppm; barley leaf segments cv Hasso, inoculated two days after application; assessed 5-7 days after application vs untreated
Method: 5 Pyrenophora teres/Barley/Leaf Disc Preventative (Net Blotch): Barley leaf segments cv Hasso were placed on agar in a 24-well plate and sprayed with formulated test compound diluted in water at an application rate of 200 ppm. The leaf segments were inoculated with a spore suspension of the fungus two days after application of the test solution. The inoculated leaf segments were incubated at 20° C. and 65% relative humidity under a light regime of 12/12 h (light/dark) in a climate cabinet and the activity of a compound was assessed as disease control compared to untreated when an appropriate level of disease damage appears in untreated check leaf segments (5-7 days after application).

SMILES | inhibition of growth at 200 ppm [1] | disease control (Alternaria solani) | inhibition of growth at 200 ppm [2] | inhibition of growth at 200 ppm (Gaeumannomyces Graminis) | melting point | inhibition of growth at 200 ppm [3] | inhibition of growth at 200 ppm (Pythium ultimum) | inhibition of growth at 200 ppm [4] | inhibition of growth at 200 ppm (Sclerotinia sclerotiorum) | pest or weed control at 200 ppm (Plasmopara viticola) | inhibition of growth at 200 ppm [5] | inhibition of growth at 200 ppm (Fusarium culmorum) | inhibition of growth at 200 ppm [6] | disease control [7] | disease control (Pyrenophora teres)
OB1OCc2ccc(-c3ccccc3)cc21 [Compound 1, 1-hydroxy-6-phenyl-3H-2,1-benzoxaborole] | ≥ 80% | at least 80% | ≥ 80% | ≥ 80% | 140 to 150 °C | ≥ 80% | ≥ 80% | ≥ 80% | ≥ 80% | ≥ 80% | ≥ 80% |  |  |  | 
OB1OCc2cc(Cl)c(-c3ccccc3)cc21 [Compound 3, 5-chloro-1-hydroxy-6-phenyl-3H-2,1-benzoxaborole] | ≥ 80% |  | ≥ 80% | ≥ 80% | 135 to 145 °C | ≥ 80% | ≥ 80% | ≥ 80% | ≥ 80% | ≥ 80% | ≥ 80% | ≥ 80% | ≥ 80% |  | 
Cc1ccccc1-c1cc2c(cc1Cl)COB2O [Compound 4] |  |  | ≥ 80% |  |  | ≥ 80% | ≥ 80% |  |  | ≥ 80% |  |  | ≥ 80% |  | 
Cc1cccc(-c2cc3c(cc2Cl)COB3O)c1 [Compound 5] |  |  | ≥ 80% |  |  | ≥ 80% | ≥ 80% |  |  |  |  | ≥ 80% | ≥ 80% |  | 
Cc1ccc(-c2cc3c(cc2Cl)COB3O)cc1 [Compound 6] |  |  | ≥ 80% |  |  | ≥ 80% | ≥ 80% |  |  |  |  | ≥ 80% | ≥ 80% |  | 
COc1ccccc1-c1cc2c(cc1Cl)COB2O [Compound 7, 5-chloro-1-hydroxy-6-(2-methoxyphenyl)-3H-2,1-benzoxaborole] |  |  | ≥ 80% |  | 90 to 105 °C | ≥ 80% | ≥ 80% |  |  | ≥ 80% |  | ≥ 80% | ≥ 80% |  | 
COc1ccc(-c2cc3c(cc2Cl)COB3O)cc1 [Compound 8, 5-chloro-1-hydroxy-6-(4-methoxyphenyl)-3H-2,1-benzoxaborole] | ≥ 80% |  | ≥ 80% | ≥ 80% | 105 to 115 °C | ≥ 80% | ≥ 80% |  |  |  |  |  | ≥ 80% |  | 
OB1OCc2cc(F)c(-c3ccccc3)cc21 [Compound 9] | ≥ 80% |  | ≥ 80% | ≥ 80% | 142 to 152 °C | ≥ 80% | ≥ 80% | ≥ 80% | ≥ 80% | ≥ 80% | ≥ 80% | ≥ 80% |  | at least 80% | 
OB1OCc2cc(F)c(-c3ccc(F)cc3)cc21 [Compound 10] | ≥ 80% |  | ≥ 80% | ≥ 80% | 161 to 163 °C | ≥ 80% | ≥ 80% | ≥ 80% | ≥ 80% | ≥ 80% | ≥ 80% | ≥ 80% |  |  | at least 80%
OB1OCc2cc(F)c(-c3ccc(Cl)cc3Cl)cc21 [Compound 28] |  |  |  | ≥ 80% |  | ≥ 80% |  | ≥ 80% | ≥ 80% |  | ≥ 80% |  | ≥ 80% |  | 
COc1ccc(Cl)cc1-c1cc2c(cc1Cl)COB2O [Compound 31] | ≥ 80% |  | ≥ 80% |  |  | ≥ 80% | ≥ 80% | ≥ 80% | ≥ 80% |  | ≥ 80% | ≥ 80% | ≥ 80% |  | 

Reference: patent publication US20180000089A1, “NOVEL MICROBIOCIDES” (Syngenta Participations AG, priority 2015, published 2018)
